Where two headings read alike, the source gives them in different places.

Consider 14 compounds from patent US20080274913A1, “Multiplex Array Useful for Assaying Protein-Protein Interaction” (priority 2005, published 2008).

One experiment concerns the target T1, ADRA2C (Homo sapiens, UniProt P18825).
T1 sequence (P18825 1-462): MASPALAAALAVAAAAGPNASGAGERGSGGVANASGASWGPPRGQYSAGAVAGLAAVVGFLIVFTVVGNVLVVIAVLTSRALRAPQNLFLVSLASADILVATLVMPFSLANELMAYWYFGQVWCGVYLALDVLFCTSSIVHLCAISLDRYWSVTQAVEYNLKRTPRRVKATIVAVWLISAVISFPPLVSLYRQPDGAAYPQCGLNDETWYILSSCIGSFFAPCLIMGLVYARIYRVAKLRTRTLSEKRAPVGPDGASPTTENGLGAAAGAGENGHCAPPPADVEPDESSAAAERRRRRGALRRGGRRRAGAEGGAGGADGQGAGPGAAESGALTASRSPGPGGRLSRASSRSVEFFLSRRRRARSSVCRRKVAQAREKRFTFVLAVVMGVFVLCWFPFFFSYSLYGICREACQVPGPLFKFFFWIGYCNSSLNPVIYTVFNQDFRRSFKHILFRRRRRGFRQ
The settings on record: varying concentrations of agonist.

For the next experiment, the target named is ADRB1 (Homo sapiens, UniProt P08588).
In experiment [1] the target is T2, ADRB2 (Homo sapiens, UniProt P07550).
For experiment [2], the target named is EGFR-TEV-NIa-Pro cleavage (Leu)-tTA (human) (UniProt P00533). Description: cell-based or functional assay.
The target of experiment [3] is human Type I Interferon Receptor (IFNAR1-TEV-NIa-Pro cleavage (L)-tTA with IFNAR2.2-TEV, in HTL5B8.1 cells) (human; tobacco etch virus) (UniProt P17181). The experiment in a line: cell-based or functional assay.
For experiment [4], the target named is CCR5-tTA fusion construct containing the low efficiency cleavage site (UniProt P51681). Description: cell-based or functional assay.
The target of experiment [5] is serotonin receptor 1a (HTR1A) (Homo sapiens, UniProt P08908). It counts as cell-based. To be noted: 10 μM; low efficiency cleavage site.
Description: A similar set of constructs were made to establish an assay for the G protein coupled serotonin receptor 1a (HTR1A).
In experiment [6] the target is epidermal growth factor receptor (EGFR) (Homo sapiens, UniProt P00533). The experiment in a line: EGFR-tTA / PLC Gamma1-TEV luciferase reporter assay in HTL5B8.1 cells. In kind it is cell-based. To be noted: 100 ng/ml; six hours. On the technique in general: Reporter assays use an easily measured gene product as a stand-in for the process of interest.
The target of experiment [7] is DRD2-GRPR 42aa Tail-tTA fusion construct containing the low efficiency cleavage site (UniProt P14416). The experiment in a line: cell-based or functional assay.
The next experiment concerns the target ADRA1A (Homo sapiens, UniProt P35348). The settings on record: 10 μM, low efficiency cleavage site.
For experiment [8], the target named is chemokine (C-C motif) receptor 5 (CCR5) (Homo sapiens, UniProt P51681). The experiment in a line: CCR5-tTA reporter assay in clone 34 cells. It counts as cell-based. The settings on record: 1 μg/ml; low efficiency cleavage site. An excerpt:
α Constructs were also made to establish an assay for the G protein coupled chemokine (C—C motif) receptor 5 (CCR5). The CCR5 coding region (Genbank Accession Number: NM_000579) (SEQ ID NO: 32) was modified to place Not I site at the 5′ end and replace the stop codon with a BamHI site using PCR with the primers
The first modified coding region was cut with ClaI and BamHI and the second was cut with BsaI and ClaI. Both fragments were ligated into the AVPR2-tTA constructs described supra, which had been cut with EcoRI and BamHI. This replaced the entire coding sequence of AVPR2 with the coding sequence of CCR5.
Assays were carried out using 1 μg/ml “Regulated on Activation, Normal T-Cell Expressed and Secreted” (RANTES), a known agonist for CCR5.

The target in experiment [9] is T3, human Type I Interferon Receptor (Homo sapiens, UniProt P17181+P48551).
T3 sequence (P17181 28-557): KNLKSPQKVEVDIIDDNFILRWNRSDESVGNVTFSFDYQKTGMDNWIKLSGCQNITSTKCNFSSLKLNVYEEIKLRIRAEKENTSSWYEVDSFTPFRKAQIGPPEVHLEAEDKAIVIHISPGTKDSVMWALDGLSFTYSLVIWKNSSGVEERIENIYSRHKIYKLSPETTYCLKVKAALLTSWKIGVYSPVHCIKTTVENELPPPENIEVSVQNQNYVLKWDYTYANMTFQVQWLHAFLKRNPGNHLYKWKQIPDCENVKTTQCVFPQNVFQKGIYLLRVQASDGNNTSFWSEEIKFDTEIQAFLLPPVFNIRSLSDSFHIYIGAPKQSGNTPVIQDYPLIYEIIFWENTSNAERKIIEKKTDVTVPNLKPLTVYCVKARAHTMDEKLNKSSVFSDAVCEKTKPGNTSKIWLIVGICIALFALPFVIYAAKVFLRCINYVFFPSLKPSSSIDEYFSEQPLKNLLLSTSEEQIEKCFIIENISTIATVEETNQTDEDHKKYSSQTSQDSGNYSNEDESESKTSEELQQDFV
T3 sequence (P48551 27-515): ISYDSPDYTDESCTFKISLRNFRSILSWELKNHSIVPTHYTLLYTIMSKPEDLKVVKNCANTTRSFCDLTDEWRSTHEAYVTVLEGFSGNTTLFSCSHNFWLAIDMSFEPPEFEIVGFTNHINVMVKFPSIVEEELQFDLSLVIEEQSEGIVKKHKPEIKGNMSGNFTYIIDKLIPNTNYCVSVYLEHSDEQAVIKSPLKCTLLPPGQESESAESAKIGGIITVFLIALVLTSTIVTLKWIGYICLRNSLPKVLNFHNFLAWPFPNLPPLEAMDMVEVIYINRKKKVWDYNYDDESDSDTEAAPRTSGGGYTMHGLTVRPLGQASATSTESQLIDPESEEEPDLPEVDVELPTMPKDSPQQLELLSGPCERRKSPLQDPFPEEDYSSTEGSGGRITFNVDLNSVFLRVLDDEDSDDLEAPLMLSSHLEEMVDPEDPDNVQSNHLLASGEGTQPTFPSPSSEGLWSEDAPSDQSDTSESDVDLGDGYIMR
Description: IFNAR1-tTA / IFNAR2.2-TEV luciferase reporter assay in HTL5B8.1 cells. In kind it is cell-based. To be noted: 5000 U/ml, 18-20 hours.

Experiment [10] deals with T3, human Type I Interferon Receptor. Description: IFNAR1-GAL4-NF-κB / IFNAR2.2-TEV luciferase reporter assay in CHO-K1 cells. It counts as cell-based. On the set-up: expressed in transfected cells; host or cells: CHO-K1; CMV-STAT1, CMV-STAT2 and pFR-Luc co-transfected.
Experiment [11] concerns the target T4, DRD2 (Homo sapiens, UniProt P14416). The settings on record: 1 μM each agonist; mixed clone 41 and clone 1H10 cells; about 24 hours.
In experiment [12] the target is dopamine 2 receptor (DRD2) (Homo sapiens, UniProt P14416). To be noted: 10 μM, medium efficiency cleavage site.
Experiment [13] concerns the target T2, ADRB2. The settings on record: 1 μM each agonist; mixed clone 41 and clone 1H10 cells; about 24 hours.
The target in experiment [14] is T4, DRD2. To be noted: 10 μM; DRD2-AVPR2 Tail-tTA, low efficiency cleavage site.
Experiment [15] addresses DRD2 (Homo sapiens, UniProt P14416+P30550). To be noted: μM dopamine; DRD2-GRPR 42aa Tail-tTA, low efficiency cleavage site.
Experiment [16] concerns the target T2, ADRB2. In kind it is cell-based. The settings on record: ADRB2-tTA with low efficiency cleavage site; clone 41 cells.

dopamine 2 receptor (DRD2), sequence (P14416 whole entry): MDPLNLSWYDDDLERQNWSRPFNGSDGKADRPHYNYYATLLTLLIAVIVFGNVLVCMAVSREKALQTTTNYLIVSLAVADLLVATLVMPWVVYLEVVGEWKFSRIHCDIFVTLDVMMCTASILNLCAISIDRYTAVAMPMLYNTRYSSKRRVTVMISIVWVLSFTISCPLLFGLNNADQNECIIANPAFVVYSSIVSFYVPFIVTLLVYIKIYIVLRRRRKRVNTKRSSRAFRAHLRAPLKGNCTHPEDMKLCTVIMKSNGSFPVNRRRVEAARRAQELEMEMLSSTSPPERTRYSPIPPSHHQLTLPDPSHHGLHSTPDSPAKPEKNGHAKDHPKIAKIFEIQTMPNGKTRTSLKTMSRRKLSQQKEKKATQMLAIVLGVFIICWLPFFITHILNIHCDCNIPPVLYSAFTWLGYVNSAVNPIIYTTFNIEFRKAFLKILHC
ADRB1, sequence (P08588 whole entry): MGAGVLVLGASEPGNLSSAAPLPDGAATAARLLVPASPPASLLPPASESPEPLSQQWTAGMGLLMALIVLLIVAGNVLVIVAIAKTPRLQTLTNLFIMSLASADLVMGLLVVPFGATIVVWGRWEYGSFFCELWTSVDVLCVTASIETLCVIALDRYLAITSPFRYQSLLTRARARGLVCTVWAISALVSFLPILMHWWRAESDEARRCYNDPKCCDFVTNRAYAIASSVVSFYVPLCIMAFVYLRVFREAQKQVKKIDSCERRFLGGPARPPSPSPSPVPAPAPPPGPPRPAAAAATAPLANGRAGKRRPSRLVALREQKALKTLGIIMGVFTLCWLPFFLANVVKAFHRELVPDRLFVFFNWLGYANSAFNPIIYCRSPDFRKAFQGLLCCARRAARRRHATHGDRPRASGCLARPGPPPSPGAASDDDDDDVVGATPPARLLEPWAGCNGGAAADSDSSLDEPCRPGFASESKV
CCR5-tTA fusion construct containing the low efficiency cleavage site, sequence (P51681 whole entry, the tested form may be a part): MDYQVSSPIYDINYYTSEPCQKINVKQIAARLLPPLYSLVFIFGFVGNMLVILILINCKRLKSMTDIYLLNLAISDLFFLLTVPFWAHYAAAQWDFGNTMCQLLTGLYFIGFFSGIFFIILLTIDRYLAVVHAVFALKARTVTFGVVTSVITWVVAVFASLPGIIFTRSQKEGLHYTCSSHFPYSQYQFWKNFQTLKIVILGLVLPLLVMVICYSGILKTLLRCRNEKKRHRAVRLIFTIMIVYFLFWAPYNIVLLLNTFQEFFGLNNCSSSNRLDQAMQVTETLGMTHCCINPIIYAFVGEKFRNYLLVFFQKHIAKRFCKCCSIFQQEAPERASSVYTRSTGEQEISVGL
DRD2-GRPR 42aa Tail-tTA fusion construct containing the low efficiency cleavage site, sequence (P14416 other isoform, or with tags, fused parts or gaps): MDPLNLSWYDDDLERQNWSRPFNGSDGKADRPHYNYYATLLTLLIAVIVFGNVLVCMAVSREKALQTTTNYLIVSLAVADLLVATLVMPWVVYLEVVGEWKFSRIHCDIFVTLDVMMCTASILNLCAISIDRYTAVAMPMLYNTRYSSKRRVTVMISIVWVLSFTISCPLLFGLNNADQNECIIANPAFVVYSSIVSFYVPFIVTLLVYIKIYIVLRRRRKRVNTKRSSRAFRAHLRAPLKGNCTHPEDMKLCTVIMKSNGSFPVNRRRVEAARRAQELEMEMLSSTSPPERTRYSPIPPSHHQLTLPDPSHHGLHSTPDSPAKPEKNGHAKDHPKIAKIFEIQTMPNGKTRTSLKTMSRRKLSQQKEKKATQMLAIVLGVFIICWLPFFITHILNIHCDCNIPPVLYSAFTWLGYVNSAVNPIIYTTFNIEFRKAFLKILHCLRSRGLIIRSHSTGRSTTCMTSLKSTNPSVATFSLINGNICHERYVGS

Regarding `Brc1c(NC2=NCCN2)ccc2nccnc12` [UK14,304], the “agonist response, UK14,304 compared with isoproterenol” value at ADRA2C was “respond to much lower concentration of UK14,304 than isoproterenol”. Moreover, the “agonist effect on the receptor” value is given as “no effect” at ADRB1 (any concentration used, FIG. 11A) and “no effect” at ADRB2 [1] (any concentration used, FIG. 11B).
In turn, “human Transforming Growth Factor-Alpha (from UniProt P01135 40-89) (ligand)” returned a fold increase of luciferase reporter gene activity, 100 ng/ml human Transforming Growth Factor-Alpha in experiment [2] of 18.3 fold.
The compound human interferon-alpha (ligand) returned a fold increase in reporter gene activity (luciferase), 5000 U/ml IFN-α in [3] of 15 fold.
“Regulated on Activation, Normal T-Cell Expressed and Secreted (RANTES) (from UniProt P13501 24-91) (ligand)” gave a maximal fold induction of reporter gene expression over the background, 1 µg/ml RANTES in [4] of 40 fold.
As to `NCCc1c[nH]c2ccc(O)cc12` [serotonin], in [5], the “maximal response, induction of reporter gene expression over background level” value stood at 4.6 fold.
For the compound `COC(=O)[C@@H]1[C@H]2C[C@H]3c4[nH]c5ccccc5c4CCN3C[C@@H]2CC[C@@H]1O` [yohimbine], the “inhibition of receptor response by antagonist” value on ADRB1 (FIG. 11F) is given as “no effect”; against ADRB2 [1] (FIG. 11G) it was “inhibition at only the very highest concentrations tested”.
Turning to “human Transforming Growth Factor—Alpha: human Transforming Growth Factor-Alpha, EGFR agonist”, the “increase of luciferase reporter gene activity” value in experiment [6] was 18.3 fold.
For “ARRB2-TEV-NIa protease fusion (from UniProt P32121 1-409)”, the fold increase in reporter gene activity (luciferase), dopamine in experiment [7] came out at 30 fold.
Consider `CNC[C@H](O)c1ccc(O)c(O)c1` [epinephrine], for which the “maximal response, induction of reporter gene expression over the background” value (“maximal response … over the background” below) on ADRA1A (ADRA1A-GRPR 23aa Tail-tTA) is “approximately 102 fold”. For the same compound, on ADRA1A (ADRA1A-GRPR 42aa Tail-tTA), the “maximal response, increase in reporter gene activity” value is on record as “approximately 14 fold”.
For the compound “RANTES: Regulated on Activation, Normal T-Cell Expressed and Secreted, a known agonist for CCR5”, the “maximal response … over the background” value in [8] is “approximately 40 fold”.
Consider IFN-α, for which the “increase in reporter gene activity” value in [9] is listed as 15 fold; in experiment [10] (5000 U/ml, 6 hours, CHO-K1 cells with reporter, IFNAR and STAT constructs), 3 fold. The “effect on reporter gene activity” value in experiment [10] (CHO-K1 cells transfected with the reporter and control plasmids) is listed as “no effect”.
“human interferon-beta (from UniProt P01574 22-187) (ligand)”: in experiment [3], the fold increase in reporter gene activity (luciferase), 5000 U/ml IFN-β turned out to be 10 fold.
For `Cl.NCCc1ccc(O)c(O)c1` [dopamine, dopamine HCl], at DRD2 [11], the “induction of luciferase activity” value amounted to 3.5 fold. The “maximal response … over the background” value in experiment [12] (ARRB1-TEV-NIa protease fusion) is 2.1 fold; in experiment [12] (ARRB2-TEV-NIa protease fusion), 2.7 fold; on DRD2 [14], “approximately 60 fold”. The “induction of beta-galactosidase reporter gene activity” value on ADRB2 [13] was “remained unchanged”. Also, the “maximal response, increase in reporter gene activity” value at DRD2 [15] was “approximately 30 fold”.
In the case of `Nc1ncnc2c1ncn2[C@@H]1O[C@H](COP(=O)(O)OP(=O)(O)OP(=O)(O)O)[C@@H](O)[C@H]1O` [ATP], the “induction of reporter gene activity by an agonist of other, endogenous GPCRs (P2Y1, P2Y2)” value at ADRB2 [16] is “Stimulation of another GPCR pathway was irrelevant”.
